Assay results reported in patent US20080207667A1 (priority 2007, published 2008).

Columns and labels:
[1] = tested on: subject suffering from a respiratory disorder (former smoker); test: Spirometry pre and post treatment with nebulized nalbuphine (Example 1); assay type: in vivo, human; details: for FEF (25–75%) % of Prediction / FEF (25–75%) (L/S) Actual / FEV1 % of Prediction / FEV1 (L) Actual / FEV1/FVC % of Prediction / FEV1/FVC (%) Actual / FVC % of Prediction / FVC (L) Actual / PEF % of Prediction / PEF (L/S) Actual / FEF (25–75%) % Change / FEV1 % Change / FEV1/FVC % Change / FVC % Change / PEF % Change: post nebulized nalbuphine
Description: This example illustrates the use of nalbuphine to treat a subject suffering from a respiratory disorder. The subject was a former smoker. Spirometry measurements were taken pre and post treatment with nebulized nalbuphine.

asthmatic = test: Spirometry pre and post treatment with nebulized nalbuphine (Example 2); assay type: in vivo, human
Experimental: In this example, an asthmatic taking advair diskus for treatment of asthma was treated with nalbuphine according to the present method. Spirometry measurements were taken pre and post treatment with nebulized nalbuphine.

smoker = test: Spirometry pre and post treatment with nebulized nalbuphine (Example 3); assay type: in vivo, human
Description: Spirometry measurements were taken pre and post treatment with nebulized nalbuphine.

[2] = nalbuphine and its salts; cited from earlier work
[3] = Treatment #1, vs pre-nalbuphine
[4] = Treatment #1, vs pre-nalbuphine, listed as nalbuphine
[5] = Treatment #2, vs pre-nalbuphine
[6] = Treatment #3, vs pre-nalbuphine
[7] = asthmatic taking advair diskus, post nebulized nalbuphine
[8] = post nebulized nalbuphine vs pre-nalbuphine
[9] = smoker treated with combivent and spiriva, post nebulized nalbuphine

Oc1ccc2c3c1O[C@H]1[C@@H](O)CC[C@@]4(O)[C@@H](C2)N(CC2CCC2)CC[C@]314 [Nalbuphine, nalbuphine]
FEF (25–75%) % of Prediction ([1]; Treatment #1): 130%
FEF (25–75%) (L/S) Actual ([1]; Treatment #1): 5.043 L/S
FEV1 % of Prediction ([1]; Treatment #1): 139%
FEV1 (L) Actual ([1]; Treatment #1): 4.223 L
FEV1/FVC % of Prediction ([1]; Treatment #1): 106%
FEV1/FVC (%) Actual ([1]; Treatment #1): 84%
FVC % of Prediction ([1]; Treatment #1): 133%
FVC (L) Actual ([1]; Treatment #1): 5.035 L
PEF % of Prediction ([1]; Treatment #1): 93%
PEF (L/S) Actual ([1]; Treatment #1): 5.98 L/S
FEF (25–75%) % Change [1, 3]: 37.50%
FEV1 % Change [1, 3]: 46%
FEV1/FVC % Change [1, 3]: 2%
FVC % Change [1, 3]: 44.0%
PEF % Change [1, 3]: −6.4%
FEV1 % Change [1, 4]: forty six
FVC % Change [1, 4]: forty-four
FEF (25–75%) % of Prediction ([1]; Treatment #2): 137%
FEF (25–75%) (L/S) Actual ([1]; Treatment #2): 5.327 L/S
FEV1 % of Prediction ([1]; Treatment #2): 134%
FEV1 (L) Actual ([1]; Treatment #2): 4.259 L
FEV1/FVC % of Prediction ([1]; Treatment #2): 107%
FEV1/FVC (%) Actual ([1]; Treatment #2): 84%
FVC % of Prediction ([1]; Treatment #2): 127%
FVC (L) Actual ([1]; Treatment #2): 4.827 L
PEF % of Prediction ([1]; Treatment #2): 113%
PEF (L/S) Actual ([1]; Treatment #2): 7.297 L/S
FEF (25–75%) % Change [1, 5]: 45%
FEV1 % Change [1, 5]: 40%
FEV1/FVC % Change [1, 5]: 2%
FVC % Change [1, 5]: 38%
PEF % Change [1, 5]: 14%
FEF (25–75%) % of Prediction ([1]; Treatment #3): 129%
FEF (25–75%) (L/S) Actual ([1]; Treatment #3): 4.998 L/S
FEV1 % of Prediction ([1]; Treatment #3): 136%
FEV1 (L) Actual ([1]; Treatment #3): 4.11 L
FEV1/FVC % of Prediction ([1]; Treatment #3): 110%
FEV1/FVC (%) Actual ([1]; Treatment #3): 87%
FVC % of Prediction ([1]; Treatment #3): 125%
FVC (L) Actual ([1]; Treatment #3): 4.733 L
PEF % of Prediction ([1]; Treatment #3): 112%
PEF (L/S) Actual ([1]; Treatment #3): 7.225 L/S
FEF (25–75%) % Change [1, 6]: 36%
FEV1 % Change [1, 6]: 42%
FEV1/FVC % Change [1, 6]: 6%
FVC % Change [1, 6]: 35%
PEF % Change [1, 6]: 13%
lung capacity and airflow after treatment ([1]; summary in words): marked improvement in lung capacity and airflow
FEV1 % of Prediction (asthmatic; [7]): 35%
FEV1 (L) Actual (asthmatic; [7]): 0.555 L
FVC % of Prediction (asthmatic; [7]): 54%
FVC (L) Actual (asthmatic; [7]): 1.155 L
FEV1 % Change (asthmatic; [8]): 48%
FVC % Change (asthmatic; [8]): 35%
FVC and FEV1 after treatment (asthmatic; summary in words): dramatic increase in FVC and FEV1
FEV1 % Change (smoker; [8]): 39%
FVC % Change (smoker; [8]): 34%
FEV1 % of Prediction (smoker; [9]): 84%
FEV1 (L) Actual (smoker; [9]): 2.745 L
FVC % of Prediction (smoker; [9]): 78%
FVC (L) Actual (smoker; [9]): 3.285 L
lung capacity and airflow after treatment (smoker; summary in words): marked improvement in lung capacity and airflow
solubility in water [2]: sparingly soluble in water
